Literature values, collected in paper PMC6768041 (Chemistry Central Journal, 2018).

Legend:
hMAO-B = biological target: T1, hMAO-B (Homo sapiens, UniProt P27338); set-up: method as in PMID 26592858; details: cited from earlier work
T1 construct: host or cells: insect cells (BTI-TN-5B14), recombinant baculovirus
T1 sequence (P27338 1-520): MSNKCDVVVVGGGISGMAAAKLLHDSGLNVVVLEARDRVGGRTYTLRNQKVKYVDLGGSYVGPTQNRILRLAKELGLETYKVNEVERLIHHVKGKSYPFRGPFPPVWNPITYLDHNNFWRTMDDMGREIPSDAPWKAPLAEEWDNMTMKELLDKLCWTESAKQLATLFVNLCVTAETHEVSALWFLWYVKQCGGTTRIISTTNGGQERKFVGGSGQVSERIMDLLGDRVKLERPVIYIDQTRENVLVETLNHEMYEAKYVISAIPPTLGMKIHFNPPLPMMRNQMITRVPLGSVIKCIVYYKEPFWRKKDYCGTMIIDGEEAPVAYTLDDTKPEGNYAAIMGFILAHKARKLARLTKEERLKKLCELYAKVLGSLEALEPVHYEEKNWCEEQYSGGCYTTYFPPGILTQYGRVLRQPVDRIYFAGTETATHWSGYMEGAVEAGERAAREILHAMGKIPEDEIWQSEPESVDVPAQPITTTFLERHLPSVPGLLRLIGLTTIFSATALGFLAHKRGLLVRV

hMAO-A = biological target: T2, hMAO-A (Homo sapiens, UniProt P21397); details: cited from earlier work
T2 construct: host or cells: insect cells (BTI-TN-5B14), recombinant baculovirus
T2 sequence (P21397 1-527): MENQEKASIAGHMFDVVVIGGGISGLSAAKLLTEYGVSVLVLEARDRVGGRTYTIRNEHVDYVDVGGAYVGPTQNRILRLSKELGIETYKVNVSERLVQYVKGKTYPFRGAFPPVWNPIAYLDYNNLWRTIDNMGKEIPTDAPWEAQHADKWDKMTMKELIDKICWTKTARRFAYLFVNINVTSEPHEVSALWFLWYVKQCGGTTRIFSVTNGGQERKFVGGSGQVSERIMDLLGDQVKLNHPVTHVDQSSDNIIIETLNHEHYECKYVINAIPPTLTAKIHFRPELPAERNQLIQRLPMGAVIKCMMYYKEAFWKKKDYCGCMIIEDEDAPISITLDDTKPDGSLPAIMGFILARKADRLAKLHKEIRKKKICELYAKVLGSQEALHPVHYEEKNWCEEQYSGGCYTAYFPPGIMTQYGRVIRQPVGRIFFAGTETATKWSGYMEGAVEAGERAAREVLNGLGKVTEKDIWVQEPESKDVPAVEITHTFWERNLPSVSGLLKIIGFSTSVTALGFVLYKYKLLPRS

COc1cc(/C=C/C(=O)O)ccc1O [Ferulic acid]
MAO inhibition value hMAO-B (hMAO-B): 24.00 ± 1.98 µM
MAO inhibition value hMAO-A (hMAO-A): 7.55 ± 0.49 µM
